The results in this text go back to publication PMC5902538, “Metabolic benefits of 1-(3-(4-(o-tolyl)piperazin-1-yl)propyl)pyrrolidin-2-one: a non-selective α-adrenoceptor antagonist” (Journal of Endocrinological Investigation, 2017).

Molecules are shown by their SMILES.

Usually IC50 stands for the point on the concentration scale where inhibition reaches its midpoint. A low value points to greater potency in that assay.

Holding throughout (type): cell-based
Assay [1] addresses T1, α1B-adrenoceptor (Homo sapiens, UniProt P35368).
T1 construct: gene ADRA1B
T1 sequence (P35368 1-520): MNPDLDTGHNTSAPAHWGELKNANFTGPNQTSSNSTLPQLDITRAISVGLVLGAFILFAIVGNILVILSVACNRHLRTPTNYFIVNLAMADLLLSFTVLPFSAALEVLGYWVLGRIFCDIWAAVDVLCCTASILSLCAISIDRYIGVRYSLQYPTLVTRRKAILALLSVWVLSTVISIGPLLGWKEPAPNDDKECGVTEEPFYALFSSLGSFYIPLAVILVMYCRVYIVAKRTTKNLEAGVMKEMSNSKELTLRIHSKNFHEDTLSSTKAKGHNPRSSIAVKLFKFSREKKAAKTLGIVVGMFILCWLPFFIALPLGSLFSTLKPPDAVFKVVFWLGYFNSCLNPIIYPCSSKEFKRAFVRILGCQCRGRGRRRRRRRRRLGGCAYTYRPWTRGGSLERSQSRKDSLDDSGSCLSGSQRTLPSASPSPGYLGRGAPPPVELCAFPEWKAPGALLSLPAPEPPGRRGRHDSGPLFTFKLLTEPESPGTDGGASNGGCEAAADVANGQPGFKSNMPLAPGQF
The experiment in a line: intrinsic activity (antagonist) assay in ready-to-use cells stably expressing the receptor (Perkin Elmer).

Assay [2] has as its target T2, α2B-adrenoceptor (Homo sapiens, UniProt P18089).
T2 construct: gene ADRA2B
T2 sequence (P18089 1-450): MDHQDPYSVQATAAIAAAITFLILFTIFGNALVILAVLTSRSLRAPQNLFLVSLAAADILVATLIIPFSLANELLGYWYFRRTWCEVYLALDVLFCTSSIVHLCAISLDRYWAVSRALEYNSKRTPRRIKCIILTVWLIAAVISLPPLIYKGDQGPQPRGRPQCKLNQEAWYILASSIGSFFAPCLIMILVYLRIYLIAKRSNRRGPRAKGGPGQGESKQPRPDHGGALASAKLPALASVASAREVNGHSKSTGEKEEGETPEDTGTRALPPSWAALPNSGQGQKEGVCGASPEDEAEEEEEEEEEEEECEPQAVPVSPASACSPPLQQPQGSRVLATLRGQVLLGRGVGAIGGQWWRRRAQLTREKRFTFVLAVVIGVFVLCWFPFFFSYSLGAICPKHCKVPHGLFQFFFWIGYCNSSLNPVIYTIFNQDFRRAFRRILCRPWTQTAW
Described as above.

Assay [3] deals with T3, α2A-adrenoceptor (Homo sapiens, UniProt P08913).
T3 construct: gene ADRA2A
T3 sequence (P08913 1-465): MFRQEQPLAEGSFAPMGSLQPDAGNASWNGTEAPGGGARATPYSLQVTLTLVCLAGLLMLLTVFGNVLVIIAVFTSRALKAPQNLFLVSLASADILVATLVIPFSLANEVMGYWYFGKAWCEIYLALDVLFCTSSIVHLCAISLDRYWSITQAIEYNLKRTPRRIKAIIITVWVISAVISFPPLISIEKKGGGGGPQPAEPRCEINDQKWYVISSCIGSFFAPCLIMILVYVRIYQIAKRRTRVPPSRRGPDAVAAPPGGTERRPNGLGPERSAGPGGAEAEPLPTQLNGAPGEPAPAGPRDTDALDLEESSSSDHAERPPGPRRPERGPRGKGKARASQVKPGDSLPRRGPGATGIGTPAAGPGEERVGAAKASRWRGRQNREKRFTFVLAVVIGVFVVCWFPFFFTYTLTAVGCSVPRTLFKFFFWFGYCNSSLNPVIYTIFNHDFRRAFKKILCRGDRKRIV
The assay can be described thus: intrinsic activity (antagonist) assay in ready-to-use cells stably expressing the receptor (Invitrogen).

Assay [4] has as its target T4, α1A-adrenoceptor (Homo sapiens, UniProt P35348).
T4 construct: gene ADRA1A
T4 sequence (P35348 1-466): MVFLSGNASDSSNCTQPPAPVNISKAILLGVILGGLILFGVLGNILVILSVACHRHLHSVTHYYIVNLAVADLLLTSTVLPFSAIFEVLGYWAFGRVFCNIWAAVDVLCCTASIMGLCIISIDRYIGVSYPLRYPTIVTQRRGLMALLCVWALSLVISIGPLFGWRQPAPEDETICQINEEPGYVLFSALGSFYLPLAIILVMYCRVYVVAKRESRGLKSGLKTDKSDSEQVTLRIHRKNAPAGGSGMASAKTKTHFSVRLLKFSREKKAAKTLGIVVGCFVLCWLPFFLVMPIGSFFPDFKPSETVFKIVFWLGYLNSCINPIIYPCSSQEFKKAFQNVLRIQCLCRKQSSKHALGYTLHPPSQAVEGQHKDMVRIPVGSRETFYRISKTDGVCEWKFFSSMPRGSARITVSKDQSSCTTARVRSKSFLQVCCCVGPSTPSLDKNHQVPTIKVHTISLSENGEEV
The description is as above.

Take `Cc1ccccc1N1CCN(CCCN2CCCC2=O)CC1` [EP-47, 1-(3-(4-(o-tolyl)piperazin-1-yl)propyl)pyrrolidin-2-one]: the IC50 in assay [1] came out at 32.6 ± 0.69 nM; in assay [2], 2070 ± 690 nM; in assay [3], 213 ± 32 nM; in assay [4], 42500 ± 11200 nM.
